Experimental data: patent US12643903B2, “Bifunctional compounds for degradation of EGFR and related methods of use” (BeiGene, Ltd., priority 2020, dated 2026)

The molecules below were run against T1, EGFR LTC (Homo sapiens, UniProt P00533, C797S/L858R/T790M) (assay: Cell Degradation 3: EGFR degradation in BaF3 cells (LTC), HTRF assay). Conditions: 16 h treatment, EGFR degradation by HTRF.
T1 construct: expressed in transfected cells; host or cells: BaF3
Format: cell-based
Method: Cell Degradation 3 Cell Treatment
BaF3 cells are treated with compounds diluted in 0.2% DMSO, dilution is done according to the following protocol: (1) make 500× stock solution in DMSO from 5 mM by 4-fold dilution, total 8 doses were included; (2) make 2× solution in cell culture medium by transferring 0.5 μl 500× stock solution into 125 μl medium; (3) 30 μl of 2× solution is added to cells and incubate for 16 h.
After 16 h treatment, add 20 μl 4×lysis buffer to each well; seal the plate and incubate 1 hour at room temperature on a plate shaker; Once the cells are lysed, 16 μL of cell lysate are transferred to a PE 384-well HTRF detection plate (for triple mutant cells, the lysate were diluted by the qual volume 1×lysis buffer before transfer); 4 μL of pre-mixed HTRF antibodies are added to each well; Cover the plate with a plate sealer, spin 1000 rpm for 1 min, Incubate overnight at room temperature; Read on BMG PheraStar with HTRF protocol (337 nm-665 nm-620 nm).
The IC50 (DC50) value of a compound can be obtained by fitting the following equation Y=Bottom+(TOP−Bottom)/(1+((IC50/X)^hillslope))
Wherein, X and Y are known values, and IC50, Hillslope, Top and Bottom are the parameters obtained by fitting with software. Y is the inhibition percentage (calculated from the equation), X is the concentration of the compound; IC50 is the concentration of the compound when the 50% inhibition is reached. The smaller the IC50 value is, the stronger the inhibitory ability of the compound is. Vice versa, the higher the IC50 value is, the weaker the ability the inhibitory ability of the compound is; Hillslope represents the slope of the fitted curve, generally around 1*; Bottom represents the minimum value of the curve obtained by data fitting, which is generally 0%±20%; Top represents the maximum value of the curve obtained by data fitting, which is generally 100%±20%. The experimental data were fitted by calculating and analyzing with Dotmatics data analysis software.

T1 sequence (P00533 25-1210 T790M/C797S/L858R): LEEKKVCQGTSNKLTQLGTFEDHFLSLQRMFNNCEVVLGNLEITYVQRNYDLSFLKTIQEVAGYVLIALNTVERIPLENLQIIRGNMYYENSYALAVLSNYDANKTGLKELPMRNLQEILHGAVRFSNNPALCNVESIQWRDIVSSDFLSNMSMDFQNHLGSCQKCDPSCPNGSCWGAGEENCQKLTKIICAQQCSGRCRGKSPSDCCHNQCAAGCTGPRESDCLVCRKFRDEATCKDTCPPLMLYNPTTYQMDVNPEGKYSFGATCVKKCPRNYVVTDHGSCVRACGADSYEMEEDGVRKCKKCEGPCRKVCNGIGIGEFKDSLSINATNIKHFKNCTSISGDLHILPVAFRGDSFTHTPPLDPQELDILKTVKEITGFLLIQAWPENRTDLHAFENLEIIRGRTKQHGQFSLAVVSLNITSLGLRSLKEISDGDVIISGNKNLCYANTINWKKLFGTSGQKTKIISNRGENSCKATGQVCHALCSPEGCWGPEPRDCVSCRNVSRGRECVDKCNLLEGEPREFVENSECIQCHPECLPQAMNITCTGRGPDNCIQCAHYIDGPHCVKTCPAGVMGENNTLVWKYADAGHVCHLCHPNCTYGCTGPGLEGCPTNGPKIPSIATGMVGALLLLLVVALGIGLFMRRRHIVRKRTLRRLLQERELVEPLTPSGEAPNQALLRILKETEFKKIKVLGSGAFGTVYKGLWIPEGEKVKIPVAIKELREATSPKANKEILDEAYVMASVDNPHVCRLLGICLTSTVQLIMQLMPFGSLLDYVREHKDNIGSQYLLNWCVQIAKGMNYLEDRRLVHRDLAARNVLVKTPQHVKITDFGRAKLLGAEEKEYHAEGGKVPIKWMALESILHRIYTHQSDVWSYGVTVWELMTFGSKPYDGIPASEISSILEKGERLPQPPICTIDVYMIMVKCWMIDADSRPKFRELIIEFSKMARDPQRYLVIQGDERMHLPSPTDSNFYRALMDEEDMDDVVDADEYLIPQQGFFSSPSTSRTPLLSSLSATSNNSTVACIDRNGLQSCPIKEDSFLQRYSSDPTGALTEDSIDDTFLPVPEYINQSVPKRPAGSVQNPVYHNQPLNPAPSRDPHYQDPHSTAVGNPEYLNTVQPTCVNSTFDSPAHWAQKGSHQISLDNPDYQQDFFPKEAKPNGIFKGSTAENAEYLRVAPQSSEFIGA

| DC50 [nM] | Structure (SMILES) |
| --- | --- |
| 24 | CCc1cc(Nc2ncc(Br)c(Nc3ccc(F)c4c3N(S(C)(=O)=O)CC4)n2)c(OC)cc1N1CCC(N2CCN(CCc3cc(F)c([C@H]4CCC(=O)NC4=O)c(F)c3)CC2)CC1 [Example 195, (R)-3-(4-(2-(4-(1-(4-((5-bromo-4-((4-fluoro-1-(methylsulfonyl)indolin-7-yl)amino)pyrimidin-2-yl)amino)-2-ethyl-5-methoxyphenyl)piperidin-4-yl)piperazin-1-yl)ethyl)-2,6-difluorophenyl)piperidine-2,6-dione] |
| 83 | CCOc1cc(N2CCC(N3CCN(CCc4cc(F)c([C@H]5CCC(=O)NC5=O)c(F)c4)CC3)CC2)c(CC)cc1Nc1ncc(Br)c(Nc2ccc(CC)c3c2N(S(C)(=O)=O)CC3)n1 [Example 203, (R)-3-(4-(2-(4-(1-(4-((5-bromo-4-((4-ethyl-1-(methylsulfonyl)indolin-7-yl)amino)pyrimidin-2-yl)amino)-5-ethoxy-2-ethylphenyl)piperidin-4-yl)piperazin-1-yl)ethyl)-2,6-difluorophenyl)piperidine-2,6-dione] |
| 65 | CCc1cc(Nc2ncc(Br)c(Nc3ccc(CC)c4c3N(S(C)(=O)=O)CC4)n2)c(OC)cc1N1CCC(N2CCN(CCc3cc(F)c(C4CCC(=O)NC4=O)c(F)c3)CC2)CC1 (stereo not shown) [Example 192, 3-(4-(2-(4-(1-(4-((5-bromo-4-((4-ethyl-1-(methylsulfonyl)indolin-7-yl)amino)pyrimidin-2-yl)amino)-2-ethyl-5-methoxyphenyl)piperidin-4-yl)piperazin-1-yl)ethyl)-2,6-difluorophenyl)piperidine-2,6-dione] |

The remaining lines, values behind:

| Structure (SMILES) | DC50 [nM] |
| --- | --- |
| CCc1cc(Nc2ncc(Br)c(Nc3ccc(C(F)(F)F)c4c3N(S(C)(=O)=O)CC4)n2)c(OC)cc1N1CCC(N2CCN(C(=O)[C@@H]3CCN(c4cc(F)c([C@H]5CCC(=O)NC5=O)c(F)c4)C3)CC2)CC1 [Example 197, (R)-3-(4-((R)-3-(4-(1-(4-((5-bromo-4-((1-(methylsulfonyl)-4-(trifluoromethyl)indolin-7-yl)amino)pyrimidin-2-yl)amino)-2-ethyl-5-methoxyphenyl)piperidin-4-yl)piperazine-1-carbonyl)pyrrolidin-1-yl)-2,6-difluorophenyl)piperidine-2,6-dione] | 83 |
| CCc1cc(Nc2ncc(Br)c(Nc3ccc(N(C)C)c4c3N(S(C)(=O)=O)CC4)n2)c(OC)cc1N1CCC(N2CCN(CCc3cc(F)c([C@H]4CCC(=O)NC4=O)c(F)c3)CC2)CC1 [Example 200, (R)-3-(4-(2-(4-(1-(4-((5-bromo-4-((4-(dimethylamino)-1-(methylsulfonyl)indolin-7-yl)amino)pyrimidin-2-yl)amino)-2-ethyl-5-methoxyphenyl)piperidin-4-yl)piperazin-1-yl)ethyl)-2,6-difluorophenyl)piperidine-2,6-dione] | 513 |
| CCc1cc(Nc2ncc(Br)c(Nc3ccc(C(F)(F)F)c4c3N(S(C)(=O)=O)CC4)n2)c(OC)cc1N1CCC(N2CCN(C(=O)C3CN(c4cc(F)c([C@H]5CCC(=O)NC5=O)c(F)c4)C3)CC2)CC1 [Example 196, (R)-3-(4-(3-(4-(1-(4-((5-bromo-4-((1-(methylsulfonyl)-4-(trifluoromethyl)indolin-7-yl)amino)pyrimidin-2-yl)amino)-2-ethyl-5-methoxyphenyl)piperidin-4-yl)piperazine-1-carbonyl)azetidin-1-yl)-2,6-difluorophenyl)piperidine-2,6-dione] | 71 |
| CCc1cc(Nc2ncc(Br)c(Nc3ccc(C4CC4)c4c3N(S(C)(=O)=O)CC4)n2)c(OC)cc1N1CCC(N2CCN(CCc3cc(F)c(C4CCC(=O)NC4=O)c(F)c3)CC2)CC1 (stereo not shown) [Example 193, 3-(4-(2-(4-(1-(4-((5-bromo-4-((4-cyclopropyl-1-(methylsulfonyl)indolin-7-yl)amino)pyrimidin-2-yl)amino)-2-ethyl-5-methoxyphenyl)piperidin-4-yl)piperazin-1-yl)ethyl)-2,6-difluorophenyl)piperidine-2,6-dione] | 74 |
